Experimental data taken from patent publication US20170189419A1, “PHARMACEUTICAL COMPOSITION FOR TREATING PROSTATE CANCER” (MA SHEN KAI RUEI CO., LTD., priority 2015, published 2017).

Tests used:
[1] = system: human prostate-cancer cells PC3; experiment: MTT survival assay, PC3 prostate cancer cells; type: cell-based; settings: for half-maximal inhibitory concentration (IC50): PC3 cells; for survival rate / growth of prostate cancer cell: PC-3 cells, compound isolated from Extraction A
Excerpt: (§1) According to the present invention, the effects such as treating Prostate cancer, inhibiting the growth of Prostate cancer cell and others, of Antroquinonol B (AnQB) and/or Anctin K (AnK) may be tested by using any of the test methods used in the prior arts, for example, MTT assay of using 3-(4, 5-dimethylthiazol-2-yl)-2, S-diphenyl tetrazolium bromide (MTT) to determine cell survival rates of Prostate cancer cell lines.
(§2) The Antroquinonol B (AnQB) and Anctin K (AnK) separately isolated from the Extraction A of Example 1 were added into the culture media of human prostate-cancer cells, PC3 or DU-145, to test for tumor cell survival by using anti-cancer drug screen model. This survival assay was carried out with the widely known MTT (3-[4,5-dimethylthiazol-2-yl]2,5-diphenyltetrazolium bromide) assay.
(§3) The human prostate cancer cell lines, PC-3 and DU-145 were cultivated in media containing fetal calf serum for 18 hours. The proliferated cells were washed once with PBS, then treated with 1× trypsin-EDTA and centrifuged at 2500 rpm for […]. The supernatant was discarded and the cell pellet was re-suspended in 200 ml of fresh culture medium by gently shaking. The cells were placed in a 96-well plate.
(§4) Subsequently, the plates were read on an ELISA reader to determine the survival rates. The half maximal inhibitory concentration (IC50) values were calculated and results of ex vivo survival assay were thus obtained.
(§5) By using the same manner as the method described above, respectively human Prostate cancer cell line PC-3 and DU-145 was cultured. After then, the pharmaceutical compositions A˜F of the present invention was applied separately, and then MTT assay for each sample was measured to assess the inhibition effectiveness of various cancer cell activity while using pharmaceutical compositions A˜F of the present invention.

[2] = system: human prostate-cancer cells DU-145; experiment: MTT survival assay, DU-145 prostate cancer cells; type: cell-based; settings: DU-145 cells; for survival rate / growth of prostate cancer cell: compound isolated from Extraction A
Excerpt: as §1, §2, §3, §4, §5

SMILES	half-maximal inhibitory concentration (IC50) [1]	survival rate / growth of prostate cancer cell [1]	half-maximal inhibitory concentration (IC50) [2]	survival rate / growth of prostate cancer cell [2]
COC1=C(OC)[C@H](O)[C@H](C/C=C(\C)CC/C=C(/C)C/C=C/C(C)(C)O)[C@@H](C)C1=O [Antroquinonol B]	relatively low	can inhibit the growth	relatively low	can inhibit the growth
C=C(CC[C@@H](C(=O)O)[C@H]1CC[C@@]2(C)C3=CC[C@H]4C(C)(C)[C@@H](O)CC[C@]4(C)C3=CC[C@]12C)C(C)C [Anctin K]	relatively low	can inhibit the growth	relatively low	can inhibit the growth
